In ChEMBL document CHEMBL1201862, “PubChem BioAssay data set” (2004):
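Growth conditions: 96-well plates. Treatment: test compound, 48 hours, 5 concentrations. Analysis: linear interpolation between bracketing concentrations; unreached endpoints set to highest concentration. GI50 is the concentration that inhibits growth by half.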 The source made the active and inactive calls. Cut-off read from the data, not from the text of the source: active = GI50 up to about 1.1 µM and inactive = higher.

Legend:
Assay in all cases: DTP human tumour cell line panel, 48 h
SF-539 = system: SF-539
SR = system: SR
HCC 2998 = system: HCC 2998
HCT-15 = system: HCT-15
NCI-H460 = system: NCI-H460
MDA-N = system: MDA-N
MDA-MB-435 = system: MDA-MB-435
SNB-75 = system: SNB-75
SK-MEL-5 = system: SK-MEL-5
UACC-257 = system: UACC-257
MCF7 = system: MCF7
A549 = system: A549
HT-29 = system: HT-29
ACHN = system: ACHN
UO-31 = system: UO-31
U-251 = system: U-251
T47D = system: T47D
HCT-116 = system: HCT-116
HL-60 = system: HL-60
LOX IMVI = system: LOX IMVI

Measured: GI50

CCCCCCCCC/C=C1/CC(CO)(COC(=O)c2ccccc2)OC1=O (centres undefined)
16.3 µM: HCT-15
inactive: SF-539 20.4 µM | SR 17.9 µM | HCC 2998 14.6 µM | NCI-H460 10 µM | MDA-N 6.01 µM | MDA-MB-435 11.1 µM | SNB-75 10.2 µM | SK-MEL-5 3.78 µM | UACC-257 14.2 µM | MCF7 16.3 µM | A549 12.9 µM | HT-29 17.7 µM | ACHN 12.4 µM | UO-31 13 µM | U-251 14 µM | T47D 11.5 µM | HCT-116 23.2 µM

O=C(NNCC(O)COc1ccccc1)c1ccccc1 (centres undefined)
inactive: SF-539 > 100 µM | HL-60 > 100 µM | HCC 2998 > 100 µM | MDA-N > 100 µM | MDA-MB-435 > 100 µM | SNB-75 > 100 µM | SK-MEL-5 42 µM | UACC-257 > 100 µM | MCF7 > 100 µM | A549 > 100 µM | HT-29 > 100 µM | ACHN > 100 µM | UO-31 > 100 µM | U-251 > 100 µM | T47D > 100 µM | HCT-116 > 100 µM | LOX IMVI > 100 µM
> 100 µM: HCT-15

Nc1c(S(N)(=O)=O)cc(S(N)(=O)=O)cc1S(N)(=O)=O
inactive: HCC 2998 > 100 µM | NCI-H460 > 100 µM | MDA-N > 100 µM | MDA-MB-435 > 100 µM | SNB-75 > 100 µM | SK-MEL-5 > 100 µM | UACC-257 > 100 µM | MCF7 > 100 µM | A549 > 100 µM | HT-29 > 100 µM | ACHN > 100 µM | UO-31 > 100 µM | U-251 > 100 µM | T47D > 100 µM | HCT-116 > 100 µM | LOX IMVI > 100 µM
> 100 µM: HCT-15

O=P(O)(O)CCP(=O)(O)O
> 100 µM: HCT-15
inactive: SF-539 > 100 µM | SR > 100 µM | HL-60 61.1 µM | NCI-H460 > 100 µM | MDA-N > 100 µM | MDA-MB-435 > 100 µM | SK-MEL-5 > 100 µM | UACC-257 5.62 µM | MCF7 > 100 µM | A549 > 100 µM | HT-29 > 100 µM | ACHN > 100 µM | UO-31 > 100 µM | U-251 > 100 µM | T47D > 100 µM | HCT-116 > 100 µM | LOX IMVI > 100 µM

CCCCCCCCCC(=O)CC(=O)c1c(O)cc(O)cc1O
inactive: SF-539 19.5 µM | HL-60 17.9 µM | HCC 2998 18.8 µM | MDA-N 16.9 µM | MDA-MB-435 16.9 µM | SNB-75 22.2 µM | SK-MEL-5 15.3 µM | UACC-257 23.4 µM | MCF7 39.1 µM | A549 25.6 µM | HT-29 17.1 µM | ACHN 27 µM | UO-31 15.5 µM | U-251 23.8 µM | T47D 34.7 µM | HCT-116 24.4 µM | LOX IMVI 17.4 µM
18.2 µM: HCT-15

CCCNc1ncnc2c1ncn2C
inactive: SF-539 34.2 µM | HL-60 32.9 µM | HCC 2998 78.7 µM | MDA-N > 100 µM | MDA-MB-435 > 100 µM | SNB-75 38.5 µM | SK-MEL-5 > 100 µM | UACC-257 > 100 µM | MCF7 53.6 µM | A549 > 100 µM | ACHN 51.6 µM | UO-31 85.1 µM | U-251 > 100 µM | T47D 44.4 µM | HCT-116 > 100 µM | LOX IMVI 31 µM
86.9 µM: HCT-15

Cc1cc(C)n(CN(Cn2nc(C)cc2C)C2CCCCC2)n1
20.6 µM: HCT-15
active: LOX IMVI 0.0652 µM
inactive: SF-539 15.7 µM | SR 30.1 µM | HCC 2998 14.6 µM | NCI-H460 61.8 µM | MDA-N 19 µM | MDA-MB-435 22.2 µM | SNB-75 17.1 µM | SK-MEL-5 31.2 µM | UACC-257 28.1 µM | MCF7 32.6 µM | A549 66.2 µM | HT-29 21.1 µM | ACHN 23.4 µM | UO-31 20.8 µM | U-251 32.1 µM | T47D 28.2 µM | HCT-116 22.4 µM

O=C1CC(=O)n2cnc3cccc(c32)N1
inactive: SF-539 > 100 µM | SR > 100 µM | HL-60 > 100 µM | NCI-H460 > 100 µM | MDA-N > 100 µM | MDA-MB-435 > 100 µM | SNB-75 > 100 µM | SK-MEL-5 > 100 µM | UACC-257 > 100 µM | MCF7 > 100 µM | A549 > 100 µM | HT-29 > 100 µM | UO-31 > 100 µM | U-251 > 100 µM | T47D > 100 µM | HCT-116 > 100 µM
> 100 µM: HCT-15

Nc1ncnc2c1ncn2C1CCC(CP(=O)(O)O)C1 (centres undefined)
> 100 µM: HCT-15
inactive: SF-539 > 100 µM | HL-60 > 100 µM | HCC 2998 > 100 µM | NCI-H460 > 100 µM | MDA-N > 100 µM | MDA-MB-435 > 100 µM | SK-MEL-5 > 100 µM | UACC-257 > 100 µM | MCF7 > 100 µM | A549 > 100 µM | HT-29 > 100 µM | ACHN > 100 µM | UO-31 > 100 µM | U-251 > 100 µM | T47D > 100 µM | HCT-116 > 100 µM | LOX IMVI > 100 µM

O=c1[nH]cc(-c2c[nH]c3ccccc23)nc1-c1c[nH]c2ccccc12
11.1 µM: HCT-15
inactive: SF-539 8.63 µM | HCC 2998 9.57 µM | NCI-H460 13.8 µM | MDA-N 2.47 µM | MDA-MB-435 3.29 µM | SNB-75 10.3 µM | SK-MEL-5 13.4 µM | UACC-257 13 µM | MCF7 10.2 µM | A549 21 µM | ACHN 11.6 µM | UO-31 8.51 µM | U-251 21 µM | T47D 8.55 µM | HCT-116 10.8 µM | LOX IMVI 11.2 µM

CC1(C)SCc2nc3ccccc3n21
inactive: SF-539 > 100 µM | HL-60 > 100 µM | HCC 2998 > 100 µM | NCI-H460 > 100 µM | MDA-N > 100 µM | MDA-MB-435 > 100 µM | SK-MEL-5 > 100 µM | UACC-257 > 100 µM | MCF7 > 100 µM | A549 > 100 µM | HT-29 > 100 µM | ACHN > 100 µM | UO-31 > 100 µM | U-251 > 100 µM | T47D > 100 µM | HCT-116 > 100 µM | LOX IMVI > 100 µM
active: SNB-75 0.0119 µM
> 100 µM: HCT-15

CC(=O)Nc1ccc(OC/C(N)=N/NC(=O)c2ccncc2)cc1
inactive: SF-539 > 100 µM | HL-60 > 100 µM | HCC 2998 > 100 µM | NCI-H460 > 100 µM | MDA-N > 100 µM | MDA-MB-435 > 100 µM | SNB-75 29.1 µM | UACC-257 > 100 µM | MCF7 > 100 µM | A549 > 100 µM | HT-29 > 100 µM | ACHN > 100 µM | U-251 > 100 µM | T47D > 100 µM | HCT-116 > 100 µM | LOX IMVI > 100 µM
> 100 µM: HCT-15

N=C(/C=C/c1ccc(-c2cn3cc(/C=C/C(=N)N4CCOCC4)ccc3n2)cc1)N1CCOCC1
> 100 µM: HCT-15
inactive: SF-539 > 100 µM | HCC 2998 > 100 µM | NCI-H460 > 100 µM | MDA-N > 100 µM | MDA-MB-435 > 100 µM | SNB-75 > 100 µM | SK-MEL-5 > 100 µM | UACC-257 > 100 µM | MCF7 94 µM | A549 > 100 µM | ACHN > 100 µM | UO-31 > 100 µM | U-251 > 100 µM | T47D > 100 µM | HCT-116 > 100 µM

COc1cc(N(CCC#N)CCC#N)ccc1C(/N=N/c1cccc([N+](=O)[O-])c1)=N\NC(=O)c1ccc(C)cc1
80.2 µM: HCT-15
inactive: HL-60 10.8 µM | HCC 2998 26 µM | NCI-H460 24.3 µM | MDA-N 84.5 µM | MDA-MB-435 > 100 µM | SK-MEL-5 59 µM | UACC-257 14.5 µM | MCF7 45 µM | A549 > 100 µM | HT-29 92 µM | ACHN > 100 µM | UO-31 71 µM | U-251 > 100 µM | T47D 27.8 µM | HCT-116 50.5 µM | LOX IMVI > 100 µM

COc1cc2c[n+](C)c3c4cc(OC)c(OC)cc4c(OCc4ccccc4)cc3c2cc1OC
> 100 µM: HCT-15
inactive: HCC 2998 2.1 µM | NCI-H460 6.62 µM | A549 4.72 µM | HT-29 2.28 µM | ACHN > 69.3 µM | UO-31 > 100 µM | LOX IMVI 1.31 µM
active: SF-539 0.114 µM | SR 0.14 µM | MDA-N 0.982 µM | MDA-MB-435 1.09 µM | SNB-75 0.199 µM | SK-MEL-5 0.838 µM | UACC-257 0.706 µM | MCF7 0.578 µM | U-251 0.0273 µM | T47D 0.0986 µM | HCT-116 1.02 µM

CC1=NN(c2nc(N)nc(CSc3cc(Cl)c(C)cc3S(N)(=O)=O)n2)C(C)(C)C1
> 10 µM: HCT-15
inactive: SF-539 > 10 µM | HL-60 > 10 µM | HCC 2998 > 10 µM | NCI-H460 > 10 µM | MDA-N > 10 µM | MDA-MB-435 > 10 µM | SNB-75 > 10 µM | SK-MEL-5 > 10 µM | UACC-257 > 10 µM | MCF7 > 10 µM | A549 > 10 µM | HT-29 > 10 µM | ACHN > 10 µM | U-251 > 10 µM | T47D > 10 µM | HCT-116 > 10 µM | LOX IMVI > 10 µM
active: UO-31 0.543 µM
